Reference: patent publication US20040121969A1, “Antiviral nucleoside derivatives” (Roche Palo Alto LLC, priority 2002, published 2004)

system: Caco-2 cells; experiment: Caco-2 cell assay permeability; format: in vitro ADME, Human; settings: Caco-2
Description: For general discussions of the Caco Assay see: S. Yee, “In Vitro Permeability Across Caco-2 Cells (Colonic) Can Predict In Vivo (Small Intestinal) Absorption in Man—Fact or Myth” Pharm. Res. 14(6):763-766 (1997) and Yamashita et. al., “Analysis of Drug Permeation Across Caco-2 Monolayer: Implication for Predicting In Vivo Drug Absorption” Pharm. Res. 14(4):486-491(1997). For specific technical aspects see: Grass, G. M. and Sweetana, S. A. “In Vitro Measurement of Gastrointestinal Tissue Permeability Using a New Diffusion Cell” Pharm. Res. 5(6):372-376 (1988); Rubas et. al., “Comparison of the Permeability Characteristics of a Human Colonic Epithelial (Caco-2) Cell Line to Colon of Rabbit, Monkey, and Dog Intestine and Human Drug Absorption” Pharm. Res. 10(1): 113-117 (1993).
High passage (108-120) Caco-2 cells are cultured in Dulbecco's Modified Eagle Media with high Glucose and L-Glutamine (DMEM) (Gibco/Life Technologies, Cat # 11965-084) supplemented with 10% Fetal Bovine Serum, 1× L-Glutamine (Gibco/Life Technologies, Cat # 25030-081) 1× Penicillin-streptomycin (Gibco/Life Technologies, Cat # 15140-122) 1× Non-essential Amino Acids, (Gibco/Life Technologies, Cat # 11140-019). Cells are maintained in T225 cm^2 Cell Culture Flask Tissue Culture Treated (Costar, Cat # 3001) at 37° C. and 5% CO2. For transport experiments, cells are plated at 7.1×10^4 cells/well into 12-well collagen-coated PTFE membrane polystyrene plates with inserts (Costar # 3493, 12 mm diameter, 0.4 um pore size, sterile, tissue culture treated). Cells are fed every 3 days and maintained at 37° C. and 5% CO2 for 21 days to allow complete formation of a polarized monolayer with tight junctions.
Prepare 5 mg/ml stock solution of test compound in DMSO and store at 4° C. Dilute desired amount of 5 mg/ml stock to 10 mL with pH 6.5 Kreb's Henseleit bicarbonate buffer to give a concentration of 100 μM. Then 1 mL of 100 μM solution was further diluted to 5 mL to make the concentration of 20 μM. This 20 μM test solution was used as initial donor dosing solution (D0). Warm drug solution(s) to 37° C. before use.
1. Prewarm buffer, working solutions, and three 12-well plates containing buffer for each plate of 12 inserts. Using a millicell®-ERS equipped with “chopstick” electrodes (Millipore, Bedford, Mass.) check the TEER. This procedure should be done when the cells are at approximately 37° C., since TEER is effected by temperature. Use only those inserts that have TEER above 300 ohms.
2. Decant media and wash each insert once with warm Kreb's-Henseleit bicarbonate buffer.
3. 0.5 mL pH 6.5 Kreb's-Henseleit buffer was added to apical side of the cell monolayers and 1.25 mL pH 7.4 Kreb's-Henseleit buffer to the basolateral chamber. The cells were equilibrated in 37° C. and 5% CO2 incubator for at least 30 minutes.
4. The apical side buffer was removed and replaced with 0.5 mL 20 μM test solutions.
5. The cells were then incubated at 37° C. and 5% CO2.
6. At 30, 60 and 90 minutes time points, the inserts were transferred to new plates which receiver sides contained 1.25 mL warm fresh pH 7.4 Kreb's-Henseleit buffer.
7. The media from all plates were collected as receiver samples.
8. After 60 min transport studies, Lucifer Yellow (0.05 mL×1000 μM) was added to the apical side of the wells. At the end of the transport studies (90 minutes), the fluorescence of the receiver side samples was measured.
Sample solutions from the donor side were collected at the end of the experiments as D90 samples. The dC/dt of test substance was calculated from sampling data at […] (assume 0 ng/mL) and 60 minutes. The apparent permeability coefficient (Papp) was calculated from the following equation, [formula] […]

| Caco-2 permeability | Compound |
| --- | --- |
| 3.4 ×10⁻⁶ cm/s | CC(C)[C@H](N)C(=O)N1CCC[C@H]1C(=O)OC[C@@H]1O[C@H](n2cnc(C(N)=O)n2)[C@@H](O)[C@H]1O.Cl [Compound 18, 1-(2S-amino-3-methyl-butyryl)-pyrrolidine-2S-carboxylic acid 5S-(3-carbamoyl-[1,2,4]triazol-1-yl)-3R,4S-dihydroxy-tetrahydro-furan-2S-ylmethyl ester, hydrochloride] |

same assay, conditions: apparent permeability coefficient (Papp); apical pH 6.5 to basolateral pH 7.4; 20 μM test solution; 37° C.

| Compound | Caco-2 permeability |
| --- | --- |
| CC(C)C[C@H](N)C(=O)OC[C@@H]1O[C@H](n2cnc(C(N)=O)n2)[C@@H](O)[C@H]1O.Cc1ccc(S(=O)(=O)O)cc1 [Compound 9, 2S-amino-4-methyl-pentanoic acid 5S-(3-carbamoyl-[1,2,4]triazol-1-yl)-3R,4S-dihydroxy-tetrahydro-furan-2S-ylmethyl ester; compound with toluene-4-sulfonic acid] | 0.9 ×10⁻⁶ cm/s |
| NC(=O)c1ncn([C@H]2O[C@@H](CO)[C@H](OC(=O)c3ccccc3)[C@@H]2OC(=O)c2ccccc2)n1 [Compound 28, benzoic acid 4S-benzoyloxy-5S-(3-carbamoyl-[1,2,4]triazol-1-yl)-2S-hydroxymethyl-tetrahydro-furan-3S-yl ester] | 26.6 ×10⁻⁶ cm/s |
| CCCCCCCC(=O)OC[C@@H]1O[C@H](n2cnc(C(N)=O)n2)[C@@H](O)[C@H]1O [Compound 34, octanoic acid 5S-(3-carbamoyl-[1,2,4]triazol-1-yl)-3R,4S-dihydroxy-tetrahydrofuran-2S-ylmethyl ester] | 6.5 ×10⁻⁶ cm/s |
| CC(C)[C@H](N)C(=O)OC[C@@H]1O[C@H](n2cnc(C(N)=O)n2)[C@@H](O)[C@H]1O.Cl [Compound 5, 2S-amino-3-methyl-butyric acid 5S-(3-carbamoyl-[1,2,4]triazol-1-yl)-3R,4S-dihydroxy-tetrahydro-furan-2S-ylmethyl ester, hydrochloride] | 5.6 ×10⁻⁶ cm/s |
| CC(C)C(=O)O[C@@H]1[C@H](OC(=O)C(C)C)[C@@H](n2cnc(C(N)=O)n2)O[C@H]1CO [Compound 17, isobutyric acid 2S-(3-carbamoyl-[1,2,4]triazol-1-yl)-5S-hydroxymethyl-4S-isobutyryloxy-tetrahydro-furan-3S-yl ester] | 4.8 ×10⁻⁶ cm/s |
| CC[C@H](C)[C@H](N)C(=O)OC[C@@H]1O[C@H](n2cnc(C(N)=O)n2)[C@@H](O)[C@H]1O.Cc1ccc(S(=O)(=O)O)cc1 [Compound 10, 2S-amino-3S-methyl-pentanoic acid 5S-(3-carbamoyl-[1,2,4]triazol-1-yl)-3R,4S-dihydroxy-tetrahydro-furan-2S-ylmethyl ester; compound with toluene-4-sulfonic acid] | 1.5 ×10⁻⁶ cm/s |
| C[C@H](N)C(=O)OC[C@@H]1O[C@H](n2cnc(C(N)=O)n2)[C@@H](O)[C@H]1O.Cc1ccc(S(=O)(=O)O)cc1 [Compound 7, 2S-amino-propionic acid 5S-(3-carbamoyl-[1,2,4]triazol-1-yl)-3R,4S-dihydroxy-tetrahydro-furan-2S-ylmethyl ester; compound with toluene-4-sulfonic acid] | 1.2 ×10⁻⁶ cm/s |
| 2S-amino-3-methyl-butyric acid 4S-(2S-amino-3-methyl-butyryloxy)-5S-(3-carbamoyl-[1,2,4]triazol-1-yl)-2S-hydroxymethyl-tetrahydrofuran-3S-yl ester dihydrochloride [Compound 3] | 8.6 ×10⁻⁶ cm/s |
| CCC(=O)OC[C@@H]1O[C@H](n2cnc(C(N)=O)n2)[C@@H](OC(=O)CC)[C@H]1OC(=O)CC [Compound 2, propionic acid 3S,4S-bis-propionyloxy-5S-(3-carbamoyl-[1,2,4]triazol-1-yl)-tetrahydro-furan-2S-ylmethyl ester] | 7.8 ×10⁻⁶ cm/s |

system: human mononuclear cells; experiment: not given; settings: treatment of human mononuclear cells; cited from earlier work

| Compound | levels of IL-2, TNFα and IFNΓ |
| --- | --- |
| NC(=O)c1ncn([C@@H]2O[C@H](CO)[C@@H](O)[C@H]2O)n1 [Ib, ribavirin] | elevated levels |

system: not given; experiment: not given; settings: background statement; cited from earlier work

| Compound | dose absorbed systemically after oral administration |
| --- | --- |
| NC(=O)c1ncn([C@H]2O[C@@H](CO)[C@@H](O)[C@H]2O)n1 [levovirin, Levovirin] | about 15% |
